From the supplement of paper PMC10307832

Experiments:
Experiment in all cases: relative viability (nuclei count vs DMSO), 5 days (fraction); higher = more cells survive
[1] = compound: C[As](C)SC[C@H](NC(=O)CC[C@H](N)C(=O)O)C(=O)NCC(=O)O [Darinaparsin] + C[C@]1(O)C[C@@H](c2nc(-c3ccc4ccc(-c5ccccc5)nc4c3)c3c(N)nccn32)C1 [Linsitinib] (partner 1 µM)
Outline: (§1)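 Dosing by pin tool came one day after lung cancer cell lines were seeded in 1536-well plates, using either one drug or a fixed anchor-drug dose plus five library-drug doses (not always all listed) in √10 steps. After 5 days, nuclei were counted on 4× images. Relative viability is treated-well nuclei count divided by vehicle-well nuclei count, and values are medians of duplicate plates.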

QS11 + Foretinib = compound: C1CC2=C(C1)C=C(C=C2)OC3=NC(=C4C(=N3)N(C=N4)CC5=CC=C(C=C5)C6=CC=CC=C6)N[C@@H](CC7=CC=CC=C7)CO [QS11] + COc1cc2c(Oc3ccc(NC(=O)C4(C(=O)Nc5ccc(F)cc5)CC4)cc3F)ccnc2cc1OCCCN1CCOCC1 [Foretinib] (partner 0.25 µM)
Outline: as §1

QS11 + Linsitinib = compound: C1CC2=C(C1)C=C(C=C2)OC3=NC(=C4C(=N3)N(C=N4)CC5=CC=C(C=C5)C6=CC=CC=C6)N[C@@H](CC7=CC=CC=C7)CO [QS11] + C[C@]1(O)C[C@@H](c2nc(-c3ccc4ccc(-c5ccccc5)nc4c3)c3c(N)nccn32)C1 [Linsitinib] (partner 1 µM)
Outline: as §1

[2] = compound: C[As](C)SC[C@H](NC(=O)CC[C@H](N)C(=O)O)C(=O)NCC(=O)O [Darinaparsin] + Cc1cc(Nc2cc(N3CCN(C)CC3)nc(Sc3ccc(NC(=O)C4CC4)cc3)n2)n[nH]1 [Tozasertib] (partner 0.1 µM)
Outline: as §1

Row | Cell Line | relative viability ([1]; first compound 0.08 µM) | relative viability ([1]; first compound 0.8 µM) | relative viability ([1]; first compound 2.53 µM) | relative viability ([1]; first compound 8 µM) | relative viability (QS11 + Foretinib; first compound 0.08 µM) | relative viability (QS11 + Foretinib; first compound 0.253 µM) | relative viability (QS11 + Foretinib; first compound 0.8 µM) | relative viability (QS11 + Foretinib; first compound 2.53 µM) | relative viability (QS11 + Foretinib; first compound 8 µM) | relative viability (QS11 + Linsitinib; first compound 0.08 µM) | relative viability (QS11 + Linsitinib; first compound 0.253 µM) | relative viability (QS11 + Linsitinib; first compound 0.8 µM) | relative viability (QS11 + Linsitinib; first compound 2.53 µM) | relative viability (QS11 + Linsitinib; first compound 8 µM) | relative viability ([2]; first compound 0.08 µM) | relative viability ([2]; first compound 0.8 µM) | relative viability ([2]; first compound 2.53 µM) | relative viability ([2]; first compound 8 µM)
1 | NCI-H1437 | 1.52 | 1.14 | 0.888 | 1.29 | 1.31 | 1.23 | 0.973 | 1.17 | 1.12 | 1.12 | 1.26 | 0.698 | 0.771 | 0.86 | 0.439 | 0.394 | 0.353 | 0.434
2 | NCI-H1651 | 1.21 | 1.08 | 0.938 | 1.13 | 0.787 | 0.901 | 0.822 | 0.671 | 0.698 | 1.12 | 0.987 | 0.813 | 0.939 | 0.581 | 0.911 | 0.739 | 0.633 | 0.918
3 | NCI-H1666 | 0.996 | 0.884 | 0.994 | 0.931 | 0.908 | 1.05 | 0.653 | 0.85 | 0.582 | 0.853 | 0.644 | 0.644 | 0.53 | 0.464 | 0.623 | 0.612 | 0.745 | 0.579
4 | NCI-H1734 | 1.23 | 0.917 | 0.674 | 0.932 | 0.842 | 0.932 | 0.91 | 0.772 | 0.713 | 0.897 | 0.988 | 0.851 | 0.825 | 0.848 | 0.276 | 0.257 | 0.256 | 0.297
5 | NCI-H1755 | 1.07 | 0.969 | 1.02 | 1.13 | 0.962 | 0.841 | 0.566 | 0.732 | 0.683 | 1.07 | 0.577 | 0.595 | 0.814 | 0.871 | 0.576 | 0.471 | 0.483 | 0.616
6 | NCI-H1793 | 0.919 | 1.01 | 0.769 | 1.22 | 0.796 | 0.657 | 0.767 | 0.573 | 0.935 | 0.972 | 0.877 | 0.939 | 1.19 | 1.04 | 0.344 | 0.305 | 0.278 | 0.385
7 | NCI-H1915 | 1.11 | 1.09 | 1.03 | 1.13 | 1.17 | 1.18 | – | 1.07 | 1.01 | 1.05 | 1.14 | – | 1.16 | 1.03 | 0.502 | 0.479 | 0.427 | 0.435
8 | NCI-H1944 | 1.14 | 1.3 | 1.23 | 1.35 | 0.886 | 0.967 | – | 0.641 | 0.671 | 1.18 | 1.38 | – | 1.18 | 1.26 | 0.245 | 0.263 | 0.251 | 0.243
9 | NCI-H1975 | 1.11 | 1.01 | 0.944 | 1.26 | 1.02 | 1.02 | 1.04 | 1.32 | 1.35 | 1.1 | 1.04 | 0.926 | 1.31 | 1.39 | 1.12 | 0.804 | 0.783 | 0.905
10 | NCI-H1993 | 0.65 | 0.7 | 0.699 | 0.695 | 0.737 | 0.636 | 0.696 | 0.787 | 0.628 | 0.622 | 0.718 | 0.682 | 0.7 | 0.857 | 0.598 | 0.585 | 0.549 | 0.557
11 | NCI-H2009 | 1.29 | 1.18 | 1.13 | 1.15 | 1.24 | 1.24 | 1.09 | 0.98 | 1.11 | 1.25 | 1.26 | 1.13 | 1.03 | 0.95 | 0.927 | 0.682 | 0.731 | 0.884
12 | NCI-H2023 | 0.7 | 0.669 | 0.604 | 0.858 | 0.721 | 0.883 | 0.686 | 0.999 | 0.852 | 0.729 | 0.545 | 0.57 | 0.713 | 0.803 | 0.696 | 0.306 | 0.357 | 0.425
13 | NCI-H2085 | 0.935 | 0.864 | 0.889 | 1.05 | 1.01 | 0.886 | 0.911 | 1.02 | 1 | 0.885 | 1.19 | 1.01 | 0.959 | 1.07 | 0.953 | 0.814 | 0.78 | 0.892
14 | NCI-H2087 | 1.07 | 0.997 | 1.01 | 0.94 | 1.07 | 1.15 | – | 1.15 | 1.06 | 1.01 | 1.15 | 0.845 | 0.655 | 0.708 | 0.243 | 0.246 | 0.254 | 0.22
15 | NCI-H2126 | 0.815 | 0.756 | 0.589 | 0.803 | 1.18 | 1.22 | 1.07 | 1.1 | 1.04 | 0.71 | 0.814 | 0.679 | 0.683 | 0.643 | 0.935 | 0.794 | 0.69 | 0.878
16 | NCI-H2228 | 0.817 | 0.702 | 0.743 | 0.746 | 0.835 | 0.827 | 0.755 | 1 | 1.03 | 0.658 | 0.555 | 0.809 | 0.834 | 0.797 | 0.217 | 0.217 | 0.286 | 0.235
17 | NCI-H2347 | 1 | 0.942 | 0.911 | 1.03 | 0.825 | 1.18 | 1.01 | 0.942 | 0.994 | 1.04 | 0.955 | 0.777 | 0.712 | 1.11 | 0.587 | – | 0.555 | 0.469
18 | NCI-H2405 | 1.01 | 0.91 | 0.812 | 0.887 | 1 | 0.986 | 1 | 1.08 | 1.16 | 0.893 | 0.925 | 0.946 | 0.942 | 1.17 | 0.777 | 0.776 | 0.703 | 0.889
